Reference: ChEMBL document CHEMBL1136215, “Potent quinoxaline-based inhibitors of PDGF receptor tyrosine kinase activity. Part 1: SAR exploration and effective bioisosteric replacement of a phenyl substituent” (Bioorg Med Chem Lett, 2003)

Experiments:
[1] = target: T1, Platelet-derived growth factor receptor (Homo sapiens, UniProt P09619+P16234); experiment: Inhibition of Platelet-derived growth factor receptor; assay type: protein-complex assay
[2] = test system: HASMC; experiment: Inhibition of mitogenesis in human aortic smooth muscle cells(HASMC); assay type: functional, cell-based
[3] = target: T1, Platelet-derived growth factor receptor; experiment: Inhibition of Platelet-derived growth factor receptor at 1 uM; assay type: protein-complex assay

IC50 [1] [nM]	IC50 [2] [nM]	inhibition [3] [%]	Compound
92			COc1cc2ncc(NCc3ccccc3)nc2cc1OC
42			COc1ccc2ncc(Nc3ccccc3)nc2c1
		0	COc1cc2ncc(N(C)c3ccccc3)nc2cc1OC
		12	COc1cc2ncc(NCC3CCCCC3)nc2cc1OC
4			COc1cc2ncc(Nc3cccc(Cl)c3)nc2cc1OC
340			Cc1cc2ncc(Nc3ccccc3)nc2cc1C
1600			COc1ccc2nc(Nc3ccccc3)cnc2c1
		8	COc1cc2ncc(Nc3ccc(Cl)cc3)nc2cc1OC
6			COc1cc2ncc(Nc3ccccc3)nc2cc1OC
128			COc1cc2ncc(NC3CCCC3)nc2cc1OC
124			COc1cc2ncc(NC3CCCCC3)nc2cc1OC

The next lines start with the molecule.

Compound	IC50 [1] [nM]	IC50 [2] [nM]	inhibition [3] [%]
c1ccc(Nc2cnc3ccccc3n2)cc1	5100		
COc1cc2ncc(O[C@H]3CC4CCC3C4)nc2cc1OC (mixture of isomers)	25	395	
COc1cc2cc(-c3ccsc3)cnc2cc1OC	461		
COc1cccc2ncc(Nc3ccccc3)nc12			11
COc1cc2cc(NC3CCCCC3)cnc2cc1OC	96		
COc1cc2ncc(NC3CCCC(C)C3)nc2cc1OC (configuration not stated)	41		
COc1cc2ncc(N[C@@H]3CC4CCC3C4)nc2cc1OC (mixture of isomers)	879		
COc1cc2cc(OC3CCCCC3)cnc2cc1OC	601		
COc1cc2ncc(OC3CCCC3)nc2cc1OC	159		
COc1cc2ncc(SC3CCCCC3)nc2cc1OC			0
COc1cc2ncc(SC3CCCC3)nc2cc1OC	226		
COc1cc2ncc(N[C@@H]3CC4CCC3C4)nc2cc1OC (stereo in doubt; 38)	15	61	
COc1cc2ncc(O[C@@H]3CC4CCC3C4)nc2cc1OC (mixture of isomers)	265		
COc1cccc2nc(Nc3ccccc3)cnc12			5
COc1cc2ncc(OC3CCCCC3)nc2cc1OC	65		
CCC1CCC(Oc2cnc3cc(OC)c(OC)cc3n2)CC1 (configuration not stated)			16
COc1cc2ncc(NC3CC4CCC3C4)nc2cc1OC (racemic)	20		
COc1cc2ncc(N[C@H]3CC4CCC3C4)nc2cc1OC (some centres not stated)	742	585	
